Earlier results in paper PMC5742115, “Pharmacophore Modeling and in Silico/in Vitro Screening for Human Cytochrome P450 11B1 and Cytochrome P450 11B2 Inhibitors” (Frontiers in Chemistry, 2017).

Tested on: CYP11B2
Settings: reported activity, supplementary Table 1; ref Ulmschneider et al., 2005a; read-out: CYP11B2 IC50; cited from earlier work
For `Cc1ccc2c(c1)/C(=C\c1ccncc1)CC2` [CHEMBL192077], the IC50 is listed as 8 nM. For `Fc1ccc2c(c1)CC/C2=C/c1cccc2ncccc12` [CHEMBL195653], the IC50 is given as 31 nM. In the case of `C(=C(c1ccccc1)c1ccccc1)c1cccnc1` [CHEMBL370317], the IC50 is given as 9 nM. For `C(=C(c1ccccc1)c1ccccc1)c1ccncc1` [CHEMBL381194], the IC50 is given as 22 nM. In the case of `Fc1ccc2c(c1)CC/C2=C\c1ccnc2ccccc12` [CHEMBL371509], the IC50 is listed as 20 nM. In the case of `COc1ccc2c(c1)/C(=C/c1ccncc1)CC2` [CHEMBL365314], the IC50 is listed as 3 nM. For `C(=C1/CC(c2ccccc2)c2ccccc21)/c1cccnc1` (stereo not shown) [CHEMBL193555], the IC50 is given as 3 nM. In the case of `COc1ccc2c(c1)CC/C2=C/c1ccncc1` [CHEMBL175609], the IC50 is listed as 55 nM. In the case of `COc1ccc2c(c1)CC/C2=C/c1cncs1` [CHEMBL195354], the IC50 is listed as 5 nM. For `COc1ccc2c(c1)CCC/C2=C/c1ccncc1` [CHEMBL193496], the IC50 is listed as 56 nM. In the case of `C(=C1c2ccccc2-c2ccccc21)c1cccnc1` [CHEMBL194928], the IC50 is given as 6 nM. In the case of `C(=C1/CCc2ccccc21)/c1ccncc1` [CHEMBL175962], the IC50 is listed as 8 nM. In the case of `COc1ccc2c(c1)CC/C2=C\c1cncs1` [CHEMBL192155], the IC50 is given as 17 nM. For `COc1ccc2c(c1)CC/C2=C\c1ccncc1` [CHEMBL359942], the IC50 is given as 59 nM. For `COc1ccc2c(c1)CCC/C2=C\c1ccncc1` [CHEMBL175979], the IC50 is given as 22 nM. For `Fc1ccc2c(c1)CC/C2=C/c1ccnc2ccccc12` [CHEMBL371275], the IC50 is listed as 14 nM. For `C(=C1c2ccccc2-c2ccccc21)c1ccncc1` [CHEMBL383145], the IC50 is listed as 5 nM. For `CC1C/C(=C/c2cccnc2)c2ccccc21` (stereo not shown) [CHEMBL373074], the IC50 is listed as 41 nM. For `COc1ccc2c(c1)/C(=C\c1ccncc1)CC2` [CHEMBL370281], the IC50 is listed as 26 nM.

Same assay, conditions: reported activity, supplementary Table 1; ref Ulmschneider et al., 2005b; read-out: CYP11B2 IC50; cited from earlier work
For `Fc1ccc2c(c1)CC/C2=C/c1ccncc1` [CHEMBL179144], the IC50 is listed as 29 nM. In the case of `Brc1ccc2c(c1)CC/C2=C/c1c[nH]cn1` [CHEMBL174579], the IC50 is given as 10.3 nM. In the case of `Clc1ccc2c(c1)/C(=C/c1cnc[nH]1)CCC2` [CHEMBL175144], the IC50 is listed as 47.3 nM.

Same assay, conditions: reported activity, supplementary Table 1; ref Ulmschneider et al., 2006; read-out: CYP11B2 IC50; cited from earlier work
In the case of `c1cncc(-c2ccc3cccc4c3c2CC4)c1` [CHEMBL372747], the IC50 is listed as 10 nM. For `c1cncc(-c2ccc3c4c(cccc24)CC3)c1` [CHEMBL199683], the IC50 is given as 14 nM.

Same assay, conditions: reported activity, supplementary Table 1; ref Voets et al., 2005; read-out: CYP11B2 IC50; cited from earlier work
In the case of `COc1cc2ccccc2cc1-n1ccnc1` [CHEMBL194472], the IC50 is given as 19 nM. For `CCOc1ccc2cc(-c3cccnc3)ccc2c1` [CHEMBL193343], the IC50 is given as 12 nM. In the case of `Brc1ccc2cc(-c3cccnc3)ccc2c1` [CHEMBL193534], the IC50 is listed as 15 nM. For `Oc1ccc2cc(-c3cccnc3)ccc2c1` [CHEMBL195571], the IC50 is given as 23 nM.

Same assay, conditions: reported activity, supplementary Table 1; ref Voets et al., 2006; read-out: CYP11B2 IC50; cited from earlier work
For `COc1ccc2c(c1)C=C(c1cccnc1)CC2` [CHEMBL206273], the IC50 is given as 5 nM.

Same assay, conditions: reported activity, supplementary Table 1; ref Yin et al., 2012; read-out: CYP11B2 IC50; cited from earlier work
For `O=C1CCc2cc(C(C3CCC3)n3ccnc3)cc3c2N1CC3` (stereo not shown) [CHEMBL2163640], the IC50 is given as 4.2 nM. For `O=C1CCc2cc(C(c3cccs3)n3ccnc3)cc3c2N1CC3` (stereo not shown) [CHEMBL2163651], the IC50 is listed as 18 nM.

Tested on: CYP11B1
Settings: reported activity, supplementary Table 1; ref Hille et al., 2011b; read-out: CYP11B1 IC50; cited from earlier work
In the case of `c1ccc2c(c1)ncn2CC12CC3CC(CC(C3)C1)C2` [CHEMBL1651506], the IC50 is given as 75 nM.

Same assay, conditions: reported activity, supplementary Table 1; ref Ulmschneider et al., 2005b; read-out: CYP11B1 IC50; cited from earlier work
In the case of `Fc1ccc2c(c1)CC/C2=C/c1ccncc1` [CHEMBL179144], the IC50 is listed as 34 nM. In the case of `Fc1ccc2c(c1)CC/C2=C/c1c[nH]cn1` [CHEMBL179247], the IC50 is given as 11.2 nM. For `C/C(=C1/CCc2cc(F)ccc21)c1cccnc1` [CHEMBL194047], the IC50 is given as 96 nM.

Same assay, conditions: reported activity, supplementary Table 1; ref Voets et al., 2005; read-out: CYP11B1 IC50; cited from earlier work
For `COc1cc2ccccc2cc1-n1ccnc1` [CHEMBL194472], the IC50 is listed as 81 nM. For `CCOc1ccc2cc(-c3cccnc3)ccc2c1` [CHEMBL193343], the IC50 is listed as 5420 nM. For `Brc1ccc2cc(-c3cccnc3)ccc2c1` [CHEMBL193534], the IC50 is listed as 2940 nM.

Same assay, conditions: reported activity, supplementary Table 1; ref Yin et al., 2012; read-out: CYP11B1 IC50; cited from earlier work
For `O=C1CCc2cc(C(C3CCC3)n3ccnc3)cc3c2N1CC3` (stereo not shown) [CHEMBL2163640], the IC50 is given as 3.4 nM. In the case of `O=C1CCc2cc(C(c3cccs3)n3ccnc3)cc3c2N1CC3` (stereo not shown) [CHEMBL2163651], the IC50 is listed as 13 nM.
